This passage reports IC50 and EC50 results from patent publication US20230391772A1, “METHODS AND COMPOSITIONS FOR TARGETED PROTEIN DEGRADATION” (Ranok Therapeutics (Hangzhou) Co. Ltd., priority 2020, published 2023).

One assay has as its target T1, HSP90a protein (Homo sapiens, UniProt P07900).
T1 construct: purchased BPS Bioscience 50298
Description: HSP90α-binding fluorescent polarization (FP) assay, BODIPY-labeled RNK04010 probe. The settings on record: FP competition with RNK04010 (BODIPY-labeled), 5 nM, 300 min at 25° C. In short, it runs like this:
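Displacement of a 5 nM fluorescent HSP90 ligand from the N-terminal HSP90a domain by FP. Incubation ran at 25° C: 120 min for the FITC-geldanamycin tracer, 300 min for the BODIPY-conjugated triazolone RNK04010.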

The subject of assay [1] is NCI-H23 human non-small cell lung cancer. Kind of assay: NCI-H23 CCK-8 proliferation assay. The assay is classed as cell-based. The settings on record: NCI-H23 cells, 72 hr. The essentials: (§1)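 Proliferation of mutant-KRAS(G12C) cells (2 copies in MIA PaCa-2, single copy in NCI-H358/NCI-H23) measured with CCK-8 after treatment across 20 μM–1.02 nM; inhibition expressed relative to vehicle-treated wells after subtracting no-cell background.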
In general terms: Tetrazolium assays rely on reduction of a dye to a coloured formazan, in cell work by metabolically active cells.

For assay [2], the system named is NCI-H358 human non-small cell lung cancer. Kind of assay: NCI-H358 CCK-8 proliferation assay. The assay is classed as cell-based. Conditions: NCI-H358 cells, 72 hr. In short, it runs like this:
as §1

The target of a further assay is KRAS(G12C) (Homo sapiens, UniProt P01116, G12C). Kind of assay: KRAS(G12C)/SOS1 homogeneous time-resolved fluorescence (HTRF) assay. Also noted: purchased Cisbio 63ADK000CB16PEG. The settings on record: absence of GTP, 4° C. for 3 hr, read-out: KRAS (G12C) binding. In short, it runs like this: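 HTRF kit measuring compound-induced block of KRAS(G12C)-SOS1 interaction without GTP. Compounds tested as 3-fold serial dilutions down to 1.02 nM, incubated with reaction components 3 h at 4 °C in sealed plates before fluorescence read.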
KRAS(G12C), sequence (P01116 1-188 isoform P01116-2 G12C): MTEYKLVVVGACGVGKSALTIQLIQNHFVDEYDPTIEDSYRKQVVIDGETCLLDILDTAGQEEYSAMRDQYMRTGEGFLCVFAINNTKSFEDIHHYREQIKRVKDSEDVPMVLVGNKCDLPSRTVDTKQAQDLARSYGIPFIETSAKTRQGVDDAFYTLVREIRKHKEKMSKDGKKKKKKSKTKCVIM
For orientation: In TR-FRET formats the signal depends on donor and acceptor labels being close together.

For assay [3], the system named is MIA PaCa-2 human pancreatic carcinoma. Kind of assay: MIA PaCa-2 CCK-8 proliferation assay. The assay is classed as cell-based. Conditions: Homo sapiens, MIA PaCa-2, 72 h, MIA PaCa-2 cells. In short, it runs like this: as §1

The structures appear in SMILES notation.

`C=CC(=O)N1CCN(c2nc(NCCC(=O)N3CCC(CN4CCN(Cc5ccc(-n6c(C(=O)NCC(F)(F)F)nnc6-c6cc(CC)c(O)cc6O)cc5)CC4)CC3)nc3c2CCN(c2cc(O)cc4ccccc24)C3)CC1` [Compound 17, 4-(4-((4-((1-(3-((4-(4-acryloylpiperazin-1-yl)-7-(3-hydroxynaphthalen-1-yl)-5,6,7,8-tetrahydropyrido[3,4-d]pyrimidin-2-yl)amino)propanoyl)piperidin-4-yl)methyl)piperazin-1-yl)methyl)phenyl)-5-(5-ethyl-2,4-dihydroxyphenyl)-N-(2,2,2-trifluoroethyl)-4H-1,2,4-triazole-3-carboxamide, trifluoroacetic acid]: the IC50 on HSP90a protein was 100 to 1000 nM; at KRAS(G12C) it was over 1000 nM. Also, the EC50 in assay [1] and in assay [2] was 100 to 1000 nM each time.
Regarding `C=CC(=O)N1CCN(c2nc(NCCC(=O)NCC3CCC(C(=O)N4CCN(Cc5ccc(-n6c(O)nnc6-c6cc(CC)c(O)cc6O)cc5)CC4)CC3)nc3c2CCN(c2cc(O)cc4ccccc24)C3)CC1` (centres unmarked) [Compound 23, 3-((4-(4-acryloylpiperazin-1-yl)-7-(3-hydroxynaphthalen-1-yl)-5,6,7,8-tetrahydropyrido[3,4-d]pyrimidin-2-yl)amino)-N-((4-(4-(4-(3-(5-ethyl-2,4-dihydroxyphenyl)-5-hydroxy-4H-1,2,4-triazol-4-yl)benzyl)piperazine-1-carbonyl)cyclohexyl)methyl)propanamide, trifluoroacetic acid], the IC50 at HSP90a protein is 100 to 1000 nM; at KRAS(G12C), over 1000 nM. In addition, the EC50 in assay [1] and in assay [2] was 100 to 1000 nM each time.
On to `C=CC(=O)N1CCN(c2nc(NCCC(=O)NCc3ccc(CN4CCC(Cc5ccc(-n6c(C(=O)NCC(F)(F)F)nnc6-c6cc(C(C)C)c(O)cc6O)cc5)CC4)cc3)nc3c2CCN(c2cc(O)cc4ccccc24)C3)CC1` [Compound 25, 4-(4-((1-(4-((3-((4-(4-acryloylpiperazin-1-yl)-7-(3-hydroxynaphthalen-1-yl)-5,6,7,8-tetrahydropyrido[3,4-d]pyrimidin-2-yl)amino)propanamido)methyl)benzyl)piperidin-4-yl)methyl)phenyl)-5-(2,4-dihydroxy-5-isopropylphenyl)-N-(2,2,2-trifluoroethyl)-4H-1,2,4-triazole-3-carboxamide, trifluoroacetic acid], for which the IC50 on HSP90a protein is under 100 nM. Besides, the EC50 in assay [3], in assay [1] and in assay [2] was 100 to 1000 nM each time.
As for `CCc1cc(-c2nnc(C(=O)NC(C)C)n2-c2ccc(CN3CCN(CC4CCN(C(=O)CCNc5nc6c(c(N7CCN(C(C)=O)CC7)n5)CCN(c5cc(O)cc7ccccc57)C6)CC4)CC3)cc2)c(O)cc1O` [Compound 55, 4-(4-((4-((1-(3-((4-(4-acetylpiperazin-1-yl)-7-(3-hydroxynaphthalen-1-yl)-5,6,7,8-tetrahydropyrido[3,4-d]pyrimidin-2-yl)amino)propanoyl)piperidin-4-yl)methyl)piperazin-1-yl)methyl)phenyl)-5-(5-ethyl-2,4-dihydroxyphenyl)-N-isopropyl-4H-1,2,4-triazole-3-carboxamide, trifluoroacetic acid], the IC50 on HSP90a protein was under 100 nM; on KRAS(G12C), over 1000 nM. Further, the EC50 in assay [1] and in assay [2] was 100 to 1000 nM in each case.
For the molecule `CCC(=O)N1CCN(c2nc(NCCC(=O)NCc3ccc(CN4CCC(Cc5ccc(-n6c(C(=O)NCC(F)(F)F)nnc6-c6cc(C(C)C)c(O)cc6O)cc5)CC4)cc3)nc3c2CCN(c2cc(O)cc4ccccc24)C3)CC1` [Compound 62, 5-(2,4-dihydroxy-5-isopropylphenyl)-4-(4-((1-(4-((3-((7-(3-hydroxynaphthalen-1-yl)-4-(4-propionylpiperazin-1-yl)-5,6,7,8-tetrahydropyrido[3,4-d]pyrimidin-2-yl)amino)propanamido)methyl)benzyl)piperidin-4-yl)methyl)phenyl)-N-(2,2,2-trifluoroethyl)-4H-1,2,4-triazole-3-carboxamide, trifluoroacetic acid], the IC50 on HSP90a protein is 100 to 1000 nM; at KRAS(G12C), over 1000 nM. In addition, the EC50 in assay [1] and in assay [2] was 100 to 1000 nM each time.
With `CCC(=O)N1CCN(c2nc(NCCC(=O)N3CCC(CN4CCN(Cc5ccc(-n6c(C(=O)NC(C)C)nnc6-c6cc(CC)c(O)cc6O)cc5)CC4)CC3)nc3c2CCN(c2cc(O)cc4ccccc24)C3)CC1` [Compound 64, 5-(5-ethyl-2,4-dihydroxyphenyl)-4-(4-((4-((1-(3-((7-(3-hydroxynaphthalen-1-yl)-4-(4-propionylpiperazin-1-yl)-5,6,7,8-tetrahydropyrido[3,4-d]pyrimidin-2-yl)amino)propanoyl)piperidin-4-yl)methyl)piperazin-1-yl)methyl)phenyl)-N-isopropyl-4H-1,2,4-triazole-3-carboxamide, trifluoroacetic acid], the values for the IC50 at HSP90a protein and on KRAS(G12C) were 100 to 1000 nM and over 1000 nM, respectively. In addition, the EC50 in assay [1] and in assay [2] was 100 to 1000 nM in each case.
As to `C=CC(=O)N1CCN(c2nc(NCCC(=O)N3CCC(CN4CCN(Cc5ccc(-n6c(C(=O)NCC(F)(F)F)nnc6-c6cc(CC)c(O)cc6O)cc5)CC4)CC3)nc3c2CCN(c2cccc4ccccc24)C3)C[C@H]1CC#N` [Compound 76, (R)-4-(4-((4-((1-(3-((4-(4-acryloyl-3-(cyanomethyl)piperazin-1-yl)-7-(naphthalen-1-yl)-5,6,7,8-tetrahydropyrido[3,4-d]pyrimidin-2-yl)amino)propanoyl)piperidin-4-yl)methyl)piperazin-1-yl)methyl)phenyl)-5-(5-ethyl-2,4-dihydroxyphenyl)-N-(2,2,2-trifluoroethyl)-4H-1,2,4-triazole-3-carboxamide, trifluoroacetic acid], the IC50 is 100 to 1000 nM at HSP90a protein and over 1000 nM on KRAS(G12C). Further, the EC50 in assay [1] and in assay [2] was 100 to 1000 nM each time.
For `CC(=O)N1CCN(c2nc(NCCC(=O)N3CCC(Cc4ccc(CN(C)Cc5ccc(-n6c(C(=O)NCC(F)(F)F)nnc6-c6cc(C(C)C)c(O)cc6O)cc5)cc4)CC3)nc3c2CCN(c2cc(O)cc4ccccc24)C3)CC1` [Compound 112, 4-(4-(((4-((1-(3-((4-(4-acetylpiperazin-1-yl)-7-(3-hydroxynaphthalen-1-yl)-5,6,7,8-tetrahydropyrido[3,4-d]pyrimidin-2-yl)amino)propanoyl)piperidin-4-yl)methyl)benzyl)(methyl)amino)methyl)phenyl)-5-(2,4-dihydroxy-5-isopropylphenyl)-N-(2,2,2-trifluoroethyl)-4H-1,2,4-triazole-3-carboxamide, trifluoroacetic acid], the IC50 at HSP90a protein was 100 to 1000 nM. Further, the 50% effective concentration (EC50) in assay [3], in assay [1] and in assay [2] was 100 to 1000 nM throughout.
`CCC(=O)N1CCN(c2nc(NCCC(=O)N3CCC(CN4CCN(Cc5ccc(-n6c(C(=O)NC7CC7)nnc6-c6cc(CC)c(O)cc6O)cc5)CC4)CC3)nc3c2CCN(c2cc(O)cc4ccccc24)C3)CC1` [Compound 116, N-cyclopropyl-5-(5-ethyl-2,4-dihydroxyphenyl)-4-(4-((4-((1-(3-((7-(3-hydroxynaphthalen-1-yl)-4-(4-propionylpiperazin-1-yl)-5,6,7,8-tetrahydropyrido[3,4-d]pyrimidin-2-yl)amino)propanoyl)piperidin-4-yl)methyl)piperazin-1-yl)methyl)phenyl)-4H-1,2,4-triazole-3-carboxamide, trifluoroacetic acid] yielded an IC50 at HSP90a protein of under 100 nM. Moreover, the EC50 in assay [3], in assay [1] and in assay [2] was 100 to 1000 nM each time.
The molecule `CCC(=O)N1CCN(c2nc(NCCC(=O)N3CCC(CN4CCN(Cc5ccc(-n6c(C(=O)NC7(C)CC7)nnc6-c6cc(CC)c(O)cc6O)cc5)CC4)CC3)nc3c2CCN(c2cc(O)cc4ccccc24)C3)CC1` [Compound 120, 5-(5-ethyl-2,4-dihydroxyphenyl)-4-(4-((4-((1-(3-((7-(3-hydroxynaphthalen-1-yl)-4-(4-propionylpiperazin-1-yl)-5,6,7,8-tetrahydropyrido[3,4-d]pyrimidin-2-yl)amino)propanoyl)piperidin-4-yl)methyl)piperazin-1-yl)methyl)phenyl)-N-(1-methylcyclopropyl)-4H-1,2,4-triazole-3-carboxamide, trifluoroacetic acid] registered an IC50 on HSP90a protein of 100 to 1000 nM. In addition, the values for the EC50 in assay [3], in assay [1] and in assay [2] were 100 to 1000 nM, 100 to 1000 nM and under 100 nM, respectively.
`CCNC(=O)c1nnc(-c2cc(CC)c(O)cc2O)n1-c1ccc(CN2CCN(CC3CCN(C(=O)CCNc4nc5c(c(N6CCN(C(=O)CC)CC6)n4)CCN(c4cc(O)cc6ccccc46)C5)CC3)CC2)cc1` [Compound 121, N-ethyl-5-(5-ethyl-2,4-dihydroxyphenyl)-4-(4-((4-((1-(3-((7-(3-hydroxynaphthalen-1-yl)-4-(4-propionylpiperazin-1-yl)-5,6,7,8-tetrahydropyrido[3,4-d]pyrimidin-2-yl)amino)propanoyl)piperidin-4-yl)methyl)piperazin-1-yl)methyl)phenyl)-4H-1,2,4-triazole-3-carboxamide, trifluoroacetic acid] came in with an IC50 at HSP90a protein of under 100 nM. Besides, the EC50 (usually the concentration at which the effect is half-maximal) was 100 to 1000 nM in assay [3], 100 to 1000 nM in assay [1] and under 100 nM in assay [2].
